In brackets after ≈: the same amount, converted by molar mass.
Key:
[1] = Half life period was measured at pH 7.4 in phosphate buffer; format: ADME
[2] = molecular target: T1, Penicillin-binding protein 1 (Staphylococcus aureus, UniProt Q53725); assay: Inhibition of Penicillin-binding protein 1 (PBP1) from Staphylococcus aureus
T1 sequence (Q53725 whole entry): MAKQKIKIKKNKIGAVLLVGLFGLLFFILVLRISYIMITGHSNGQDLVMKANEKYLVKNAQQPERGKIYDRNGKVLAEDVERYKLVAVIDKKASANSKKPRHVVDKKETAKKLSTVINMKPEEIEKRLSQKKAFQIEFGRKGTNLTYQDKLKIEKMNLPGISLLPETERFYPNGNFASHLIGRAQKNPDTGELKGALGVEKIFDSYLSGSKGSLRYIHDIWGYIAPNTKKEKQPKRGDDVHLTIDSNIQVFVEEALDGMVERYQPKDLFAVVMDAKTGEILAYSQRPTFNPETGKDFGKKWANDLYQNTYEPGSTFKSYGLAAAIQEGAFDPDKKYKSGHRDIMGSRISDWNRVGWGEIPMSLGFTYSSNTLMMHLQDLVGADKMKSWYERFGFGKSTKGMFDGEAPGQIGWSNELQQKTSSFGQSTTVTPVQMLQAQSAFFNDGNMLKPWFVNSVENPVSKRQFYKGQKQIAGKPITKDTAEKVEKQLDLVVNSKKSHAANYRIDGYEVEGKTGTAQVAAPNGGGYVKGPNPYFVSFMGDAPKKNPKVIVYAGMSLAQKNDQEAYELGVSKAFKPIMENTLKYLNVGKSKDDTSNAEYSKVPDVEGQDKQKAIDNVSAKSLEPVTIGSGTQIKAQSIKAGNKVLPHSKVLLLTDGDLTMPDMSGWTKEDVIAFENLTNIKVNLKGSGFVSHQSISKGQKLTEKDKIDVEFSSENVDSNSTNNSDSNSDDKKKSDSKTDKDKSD

[3] = test system: Staphylococcus aureus; assay: In vitro antibacterial activity against Staphylococcus aureus; range is 62.5->1000; format: functional
[4] = test system: Streptococcus pneumoniae; assay: In vitro antibacterial activity against Streptococcus pneumoniae; range is 62.5->1000; format: functional
[5] = molecular target: T2, Penicillin-binding protein 2 (Staphylococcus aureus, UniProt Q53729); assay: Inhibition of Penicillin-binding protein 2 (PBP2) from Staphylococcus aureus
T2 sequence (Q53729 whole entry): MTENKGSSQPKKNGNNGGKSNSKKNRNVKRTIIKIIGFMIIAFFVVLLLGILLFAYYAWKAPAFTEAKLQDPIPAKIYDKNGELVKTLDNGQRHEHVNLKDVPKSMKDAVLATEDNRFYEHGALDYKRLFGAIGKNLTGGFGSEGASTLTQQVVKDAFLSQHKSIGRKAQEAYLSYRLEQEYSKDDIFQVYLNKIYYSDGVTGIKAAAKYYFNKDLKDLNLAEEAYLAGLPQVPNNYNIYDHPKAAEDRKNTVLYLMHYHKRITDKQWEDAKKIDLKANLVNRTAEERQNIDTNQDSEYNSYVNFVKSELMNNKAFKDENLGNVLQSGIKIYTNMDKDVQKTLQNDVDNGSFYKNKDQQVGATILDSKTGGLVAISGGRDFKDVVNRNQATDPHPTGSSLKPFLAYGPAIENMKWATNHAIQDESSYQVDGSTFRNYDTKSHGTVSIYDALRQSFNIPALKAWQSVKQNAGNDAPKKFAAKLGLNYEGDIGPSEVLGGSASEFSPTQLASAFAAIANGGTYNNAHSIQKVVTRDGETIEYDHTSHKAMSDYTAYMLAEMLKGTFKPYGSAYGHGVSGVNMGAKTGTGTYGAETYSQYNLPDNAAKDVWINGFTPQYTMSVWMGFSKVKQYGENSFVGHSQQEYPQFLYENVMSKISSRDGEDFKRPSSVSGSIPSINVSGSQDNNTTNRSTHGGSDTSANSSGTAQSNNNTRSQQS

[6] = test system: Klebsiella pneumoniae; assay: In vitro antibacterial activity against Klebsiella pneumoniae; range is 62.5->1000; format: functional
[7] = molecular target: T3, Penicillin-binding protein 3 (Staphylococcus aureus, UniProt Q5D1F0); assay: Inhibition of Penicillin-binding protein 3 (PBP3) from Staphylococcus aureus
T3 sequence (Q5D1F0 whole entry): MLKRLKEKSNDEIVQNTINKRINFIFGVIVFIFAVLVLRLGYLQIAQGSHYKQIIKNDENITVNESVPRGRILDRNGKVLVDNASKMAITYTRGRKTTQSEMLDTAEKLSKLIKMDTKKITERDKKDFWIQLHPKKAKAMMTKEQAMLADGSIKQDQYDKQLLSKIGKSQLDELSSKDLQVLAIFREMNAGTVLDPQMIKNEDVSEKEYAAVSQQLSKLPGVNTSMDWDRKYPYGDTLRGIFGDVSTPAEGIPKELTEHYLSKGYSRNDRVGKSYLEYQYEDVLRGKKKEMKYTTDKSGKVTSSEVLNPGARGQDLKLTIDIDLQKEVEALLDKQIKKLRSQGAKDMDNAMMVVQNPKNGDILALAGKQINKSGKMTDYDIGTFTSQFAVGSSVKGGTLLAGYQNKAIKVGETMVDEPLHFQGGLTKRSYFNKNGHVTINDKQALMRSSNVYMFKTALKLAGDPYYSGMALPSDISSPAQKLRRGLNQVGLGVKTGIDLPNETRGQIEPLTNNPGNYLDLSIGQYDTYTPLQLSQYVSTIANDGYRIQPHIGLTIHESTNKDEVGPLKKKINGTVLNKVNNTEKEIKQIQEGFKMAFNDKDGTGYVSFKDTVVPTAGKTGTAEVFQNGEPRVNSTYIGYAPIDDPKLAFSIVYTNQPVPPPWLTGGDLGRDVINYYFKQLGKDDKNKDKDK

[8] = test system: Staphylococcus aureus; assay: In vitro antibacterial activity against Staphylococcus aureus; range is 1.6->100; format: functional
[9] = test system: Streptococcus pneumoniae; assay: In vitro antibacterial activity against Streptococcus pneumoniae; range is 1.6->100; format: functional
[10] = test system: Klebsiella pneumoniae; assay: In vitro antibacterial activity against Klebsiella pneumoniae; range is 1.6->100; format: functional
[11] = test system: Klebsiella pneumoniae; assay: In vitro antibacterial activity against Klebsiella pneumoniae; format: functional
[12] = test system: Moraxella catarrhalis; assay: In vitro antibacterial activity against Moraxella catarrhalis; format: functional
[13] = test system: Enterobacter cloacae; assay: In vitro antibacterial activity against Enterobacter cloacae; format: functional
[14] = test system: Moraxella catarrhalis; assay: In vitro antibacterial activity against Moraxella catarrhalis; range is 15.6->1000; format: functional
[15] = test system: Enterobacter cloacae; assay: In vitro antibacterial activity against Enterobacter cloacae; range is 15.6->1000; format: functional
[16] = test system: Klebsiella pneumoniae; assay: In vitro antibacterial activity against Klebsiella pneumoniae; range is 15.6->1000; format: functional
[17] = test system: Moraxella catarrhalis; assay: In vitro antibacterial activity against Moraxella catarrhalis; range is 31.3->1000; format: functional
[18] = test system: Enterobacter cloacae; assay: In vitro antibacterial activity against Enterobacter cloacae; range is 31.3->1000; format: functional
[19] = test system: Klebsiella pneumoniae; assay: In vitro antibacterial activity against Klebsiella pneumoniae; range is 31.3->1000; format: functional
[20] = test system: Klebsiella pneumoniae; assay: In vitro antibacterial activity against Klebsiella pneumoniae; range is 125->1000; format: functional
[21] = test system: Moraxella catarrhalis; assay: In vitro antibacterial activity against Moraxella catarrhalis; range is 125->1000; format: functional
[22] = test system: Enterobacter cloacae; assay: In vitro antibacterial activity against Enterobacter cloacae; range is 125->1000; format: functional
[23] = test system: Staphylococcus aureus; assay: In vitro antibacterial activity against Staphylococcus aureus; range is 2->32; format: functional
[24] = test system: Streptococcus pneumoniae; assay: In vitro antibacterial activity against Streptococcus pneumoniae; range is 2->32; format: functional
[25] = test system: Klebsiella pneumoniae; assay: In vitro antibacterial activity against Klebsiella pneumoniae; range is 2->32; format: functional
[26] = test system: Klebsiella pneumoniae; assay: In vitro antibacterial activity against Klebsiella pneumoniae; range is 62.6->1000; format: functional
[27] = test system: Enterobacter cloacae; assay: In vitro antibacterial activity against Enterobacter cloacae; range is 62.6->1000; format: functional
[28] = test system: Moraxella catarrhalis; assay: In vitro antibacterial activity against Moraxella catarrhalis; range is 62.6->1000; format: functional
[29] = test system: Klebsiella pneumoniae; assay: In vitro antibacterial activity against Klebsiella pneumoniae; range is 16->1000; format: functional
[30] = test system: Moraxella catarrhalis; assay: In vitro antibacterial activity against Moraxella catarrhalis; range is 16->1000; format: functional
[31] = test system: Enterobacter cloacae; assay: In vitro antibacterial activity against Enterobacter cloacae; range is 16->1000; format: functional

Row | SMILES | half-life [1] [min] | IC50 [2] [µM] | IC50 [5] [µM] | IC50 [7] [µM] | MIC [11] [µg/mL] | MIC [12] [µg/mL] | MIC [13] [µg/mL] | also measured
1 | O=C(O)CN1C[C@H](NC(=O)COc2ccccc2)C1=O | > 1920 | > 898 | > 898 | > 898 | – | – | – | MIC [3]: 62.5 µg/mL (≈ 225 µM); MIC [4]: 62.5 µg/mL (≈ 225 µM); MIC [6]: 62.5 µg/mL (≈ 225 µM)
2 | CCCCNOS(=O)(=O)N1C[C@H](NC(=O)Cc2ccccc2)C1=O | – | > 703 | > 703 | > 703 | – | – | – | MIC [8]: 1.6 µg/mL (≈ 4.5 µM); MIC [9]: 1.6 µg/mL (≈ 4.5 µM); MIC [10]: 1.6 µg/mL (≈ 4.5 µM)
3 | CC(C)[C@@H](C(=O)O)N1C(=O)[C@@H](NC(=O)COc2ccccc2)C[S+]1[O-] (stereo partly specified) | < 84 | > 679 | > 679 | > 679 | > 1000 | > 1000 | > 1000 | –
4 | CCCCNOS(=O)(=O)N1C(=O)[C@@H](NC(=O)COc2ccc(Cl)cc2)CS1(=O)=O | < 24 | > 532 | > 532 | > 532 | > 64 | > 64 | > 64 | –
5 | CO/N=C(/C(=O)NC1CS(=O)(=O)N(CC(=O)O)C1=O)c1csc(N)n1.O=C(O)C(F)(F)F (stereo unspecified) | 336 | > 495 | > 495 | > 495 | > 64 | > 64 | > 64 | –
6 | CC(C)[C@@H](C(=O)O)N1C(=O)C(NC(=O)COc2ccccc2)CS1(=O)=O (stereo partly specified) | 1320 | > 650 | > 650 | > 650 | – | – | – | MIC [29]: 16 µg/mL (≈ 41.6 µM); MIC [30]: 16 µg/mL (≈ 41.6 µM); MIC [31]: 16 µg/mL (≈ 41.6 µM)
7 | O=C(O)CN1C(=O)C(NC(=O)COc2ccccc2)CS1(=O)=O (stereo unspecified) | 714 | > 730 | > 730 | > 730 | > 100 | > 100 | > 100 | –

Further lines, with some results ahead:

Row | half-life [1] [min] | IC50 [2] [µM] | IC50 [5] [µM] | IC50 [7] [µM] | MIC [11] [µg/mL] | MIC [12] [µg/mL] | MIC [13] [µg/mL] | SMILES | also measured
8 | < 198 | > 679 | > 679 | > 679 | > 1000 | > 1000 | > 1000 | CC(C)[C@H](C(=O)O)N1C(=O)[C@@H](NC(=O)COc2ccccc2)C[S+]1[O-] (stereo partly specified) | –
9 | 306 | > 552 | > 552 | > 552 | – | – | – | O=C(CN1C(=O)C(NC(=O)Oc2ccc(Cl)cc2)CS1(=O)=O)OCc1ccccc1 (stereo unspecified) | MIC [14]: 15.6 µg/mL (≈ 34.4 µM); MIC [15]: 15.6 µg/mL (≈ 34.4 µM); MIC [16]: 15.6 µg/mL (≈ 34.4 µM)
10 | 948 | > 568 | > 568 | > 568 | – | – | – | CC(C)C(C(=O)OC(C)(C)C)N1C(=O)C(NC(=O)OCc2ccccc2)CS1(=O)=O (stereo unspecified) | MIC [17]: 31.3 µg/mL (≈ 71.1 µM); MIC [18]: 31.3 µg/mL (≈ 71.1 µM); MIC [19]: 31.3 µg/mL (≈ 71.1 µM)
11 | 942 | > 664 | > 664 | > 664 | – | – | – | CC(C(=O)O)N1C(=O)C(NC(=O)Oc2ccc(Cl)cc2)CS1(=O)=O (stereo unspecified) | MIC [20]: 125 µg/mL (≈ 332 µM); MIC [21]: 125 µg/mL (≈ 332 µM); MIC [22]: 125 µg/mL (≈ 332 µM)
12 | > 2880 | > 780 | > 780 | > 780 | – | – | – | CC(C)[C@H](C(=O)O)N1C[C@H](NC(=O)COc2ccccc2)C1=O | MIC [23]: 2 µg/mL (≈ 6.24 µM); MIC [24]: 2 µg/mL (≈ 6.24 µM); MIC [25]: 2 µg/mL (≈ 6.24 µM)
13 | < 30 | > 545 | > 545 | > 545 | – | – | – | CC(C)[C@H](C(=O)OCc1ccccc1)N1C(=O)[C@@H](NC(=O)COc2ccccc2)C[S+]1[O-] (stereo partly specified) | MIC [26]: 62.6 µg/mL (≈ 137 µM); MIC [27]: 62.6 µg/mL (≈ 137 µM); MIC [28]: 62.6 µg/mL (≈ 137 µM)
14 | – | > 578 | > 578 | > 578 | – | – | – | CC(C(=O)OC(C)(C)C)N1C(=O)C(NC(=O)Oc2ccc(Cl)cc2)CS1(=O)=O (stereo unspecified) | MIC [17]: 31.3 µg/mL (≈ 72.3 µM); MIC [18]: 31.3 µg/mL (≈ 72.3 µM); MIC [19]: 31.3 µg/mL (≈ 72.3 µM)

From ChEMBL document CHEMBL1133904, “Stereoselective synthesis and antibacterial evaluation of 4-amido-isothiazolidinone oxides” (Bioorg Med Chem Lett, 2001)
